Key:
Type in all cases: cell-based
[1] = system: HDFa cells; assay: Photo repair effectiveness in human fibroblasts (Neutral Red viability, treatment after irradiation); details: for Cell viability: irradiated control 63.06%; for Effectiveness Photo-repair (%): irradiated
Experimental: HDFa cells were put in culture medium for 24 hours in 96-well plates to form monolayers at 37° C. and humidified air with 5% CO2. Afterwards the culture medium was changed for D-PBS and the cells were irradiated with a solar simulation lamp at ˜40 J/cm^2 for 180 min at room temperature. A control plate was kept in the dark for the same time at room temperature.
Afterwards 0.5 mg/mL, 0.1 mg/mL, 0.01 mg/mL of Ac-L-Tyr-L-Glu-L-Lys-L-Leu-L-Gln-L-Val-NH2 (Ac-SEQ ID NO:22-NH2) in culture medium or culture medium alone (control) were added to the cells and they were incubated for 24 hours in darkness at 37° C. and humidified air with 5% CO2.
(§1) The cell viability was determined with the Neutral Red dye, measuring the absorbency at 540 nm in a spectrophotometer.
The photorepair effectiveness was determined by comparing the viability obtained in cells treated with Ac-L-Tyr-L-Glu-L-Lys-L-Leu-L-Gln-L-Val-N H2 (Ac-SEQ ID NO:22-NH2) with the irradiated and non-irradiated control cell response.

[2] = system: Adult human epidermal keratinocytes (HEKa); assay: Profile of the gene expression of human epidermal keratinocytes (microarray); details: 0.1 mg/ml, 24 hours, vs untreated cells
Experimental: Adult human epidermal keratinocytes (HEKa) were seeded (15×10^4 cells/vial cells/vial T25 cm^2), and were incubated in complete Epilife medium for 7 days at 37° C. in an atmosphere with 5% CO2. After the incubation, the cells were treated for 24 hours at 37° C. in an atmosphere with 5% CO2 with 0.1 mg/ml of the compound Ac-L-Tyr-L-Glu-L-Lys-L-Leu-L-Gln-L-Val-NH2 (Ac-SEQ ID NO:22-NH2) in complete Epilife medium or in complete Epilife medium as a negative control. The incubations and the treatments were carried out in duplicate for each condition.
24 hours after the treatments, the cells were homogenized and the RNA was extracted and purified from each replica and each condition by means of the RNeasyPlus Mini kit by Qiagen. Briefly, RNases were inactivated from cells lysates and samples were passed through special RNA binding columns to eliminate contaminants and impurities and after several microcentrifugation washes, the purified RNA was eluted with 50 μl of ultrapure water. The purity, integrity and concentration of the RNA obtained was evaluated by means of spectrophotometry (Nanodrop) and with a bioanalyzer (Agilent Bioanalyzer).
The marking of the purified RNA was carried out as was the hybridization of the samples in a human gene expression microarray (ASurePrint G3, Agilent). The normalized values obtained with the treatment were compared with the normalized values obtained with the negative control to obtain genes with differential expression. Next, a parametric analysis of the data was carried out by means of the Bioconductor software. Then, the values obtained were evaluated by means of GSEA (Gene Set Analysis Enrichment) to group the genes with differential expression in terms of Gene Ontology. Biological Routes and most significant pathways with a False Discovery Rate (FDR) lower than 25% were selected.

[3] = system: HDFa cells; assay: Photoprotective effectiveness in human fibroblasts (Neutral Red viability after solar simulation irradiation); details: for Effectiveness Photoprotection (%): irradiated; for Cell viability: preincubated 1 hour, irradiated ~60 J/cm^2, irradiated control 50.72%
Experimental: HDFa cells were put in culture medium for 24 hours in 96-well plates to form monolayers. Afterwards the cells were preincubated in darkness with 0.5 mg/mL, 0.1 mg/mL, 0.01 mg/mL of Ac-L-Tyr-L-Glu-L-Lys-L-Leu-L-Gln-L-Val-NH2 (Ac-SEQ ID NO:22-NH2) in PBS or PBS alone (control) for 1 hour at 37° C. and humidified air with 5% CO2.
The cells were irradiated with a solar simulation lamp at ˜60 J/cm^2 for 210 min at room temperature. A control plate was kept in the dark for the same time at room temperature. Once irradiation was completed the culture medium was changed for a new one and the plates were incubated for another 24 hours.
as §1
The photoprotective effectiveness was determined by comparing the viability obtained in cells treated with Ac-L-Tyr-L-Glu-L-Lys-L-Leu-L-Gln-L-Val-NH2 (Ac-SEQ ID NO:22-NH2) with the irradiated and non-irradiated control cell response.

Ac-YEKLQV-NH2 [Ac-SEQ ID NO: 22-NH2, Ac-L-Tyr-L-Glu-L-Lys-L-Leu-L-Gln-L-Val-NH2]
Cell viability ([1]; 0.01 mg/mL for 24 hours after irradiation ~40 J/cm^2): 71.99%
Effectiveness Photo-repair (%) ([1]; 0.01 mg/mL): 14.16%
Cell viability ([1]; 0.1 mg/mL for 24 hours after irradiation ~40 J/cm^2): 70.71%
Effectiveness Photo-repair (%) ([1]; 0.1 mg/mL): 12.13%
Cell viability ([1]; 0.5 mg/mL for 24 hours after irradiation ~40 J/cm^2): 71.40%
Effectiveness Photo-repair (%) ([1]; 0.5 mg/mL): 13.23%
% Expression induction, ACD ([2]; gene ACD, LONGEVITY, TELOMERE MAINTENANCE AND PROTECTION): 10.76%
% Expression induction, AIF1 ([2]; gene AIF1, INFLAMMATION, ANTI-INFLAMMATORY RESPONSE): 19.02%
% Expression induction, ANXA1 ([2]; gene ANXA1, INFLAMMATION, ANTI-INFLAMMATORY RESPONSE): 8.22%
% Expression induction, ANXA4 ([2]; gene ANXA4, INFLAMMATION, ANTI-INFLAMMATORY RESPONSE): 17.69%
% Expression induction, ANXA5 ([2]; gene ANXA5, INFLAMMATION, ANTI-INFLAMMATORY RESPONSE): 22.32%
% Expression induction, ATM ([2]; gene ATM, CELL CYCLE): 48.53%
% Expression induction, ATRX ([2]; gene ATRX, HELICASE ACTIVITY and ATPase ACTIVITY): 48.65%
% Expression induction, BAG4 ([2]; gene BAG4, APOPTOSIS INHIBITION): 32.42%
% Expression induction, BAX ([2]; gene BAX, APOPTOSIS INHIBITION): −60.73%
% Expression induction, BCL2 ([2]; gene BCL2, APOPTOSIS INHIBITION): 59.91%
% Expression induction, BCL2L2 ([2]; gene BCL2L2, APOPTOSIS INHIBITION): 32.49%
% Expression induction, BIRC3 ([2]; gene BIRC3, APOPTOSIS INHIBITION): 16.84%
% Expression induction, BIRC6 ([2]; gene BIRC6, APOPTOSIS INHIBITION): 73.14%
% Expression induction, BNIP2 ([2]; gene BNIP2, APOPTOSIS INHIBITION): 30.68%
% Expression induction, BNIP3L ([2]; gene BNIP3L, APOPTOSIS INHIBITION): 31.39%
% Expression induction, CASP3 ([2]; gene CASP3, APOPTOSIS ACTIVATION): 31.18%
% Expression induction, CDK7 ([2]; gene CDK7, DNA repair, Protein DNA Complex Assembly): 14.31%
% Expression induction, CHD1 ([2]; gene CHD1, HELICASE ACTIVITY and ATPase ACTIVITY): 40.46%
% Expression induction, CHD2 ([2]; gene CHD2, HELICASE ACTIVITY and ATPase ACTIVITY): 42.59%
% Expression induction, DDX1 ([2]; gene DDX1, HELICASE ACTIVITY and ATPase ACTIVITY): 26.92%
% Expression induction, DDX10 ([2]; gene DDX10, HELICASE ACTIVITY and ATPase ACTIVITY): 27.49%
% Expression induction, DDX25 ([2]; gene DDX25, HELICASE ACTIVITY and ATPase ACTIVITY): 16.24%
% Expression induction, ERCC6 ([2]; gene ERCC6, HELICASE ACTIVITY and ATPase ACTIVITY): 74.50%
% Expression induction, ERCC8 ([2]; gene ERCC8, DNA repair, Protein DNA Complex Assembly): 8.90%
% Expression induction, FAS ([2]; gene FAS, APOPTOSIS INHIBITION): −15.36%
% Expression induction, IL6 ([2]; gene IL6, INFLAMMATION, ANTI-INFLAMMATORY RESPONSE): −26.30%
% Expression induction, MAPK8 ([2]; gene MAPK8, APOPTOSIS INHIBITION): −33.72%
% Expression induction, MCL1 ([2]; gene MCL1, APOPTOSIS ACTIVATION): −17.76%
% Expression induction, MED4 ([2]; gene MED4, DNA repair, Protein DNA Complex Assembly): 28.80%
% Expression induction, MED13 ([2]; gene MED13, DNA repair, Protein DNA Complex Assembly): 56.75%
% Expression induction, MED14 ([2]; gene MED14, DNA repair, Protein DNA Complex Assembly): 32.54%
% Expression induction, MED17 ([2]; gene MED17, DNA repair, Protein DNA Complex Assembly): 46.25%
% Expression induction, MNAT1 ([2]; gene MNAT1, DNA repair, Protein DNA Complex Assembly): 17.84%
% Expression induction, MSH4 ([2]; gene MSH4, CELL CYCLE): 33.28%
% Expression induction, MYC ([2]; gene MYC, APOPTOSIS ACTIVATION): 41.70%
% Expression induction, NLRP3 ([2]; gene NLRP3, INFLAMMATION, ANTI-INFLAMMATORY RESPONSE): 36.49%
% Expression induction, NLRP12 ([2]; gene NLRP12, INFLAMMATION, ANTI-INFLAMMATORY RESPONSE): 39.96%
% Expression induction, PAPD7 ([2]; gene PAPD7, DNA POLYMERASE ACTIVITY): 65.27%
% Expression induction, POLA1 ([2]; gene POLA1, DNA POLYMERASE ACTIVITY): 29.28%
% Expression induction, POLD4 ([2]; gene POLD4, DNA POLYMERASE ACTIVITY): 31.74%
% Expression induction, POLH ([2]; gene POLH, DNA POLYMERASE ACTIVITY): 28.96%
% Expression induction, PTEN ([2]; gene PTEN, other genes involved in LONGEVITY): 26.04%
% Expression induction, RAD17 ([2]; gene RAD17, CELL CYCLE): 0.21%
% Expression induction, RAD21 ([2]; gene RAD21, CELL CYCLE): 18.22%
% Expression induction, RAD50 ([2]; gene RAD50, CELL CYCLE): 37.66%
% Expression induction, RAD54B ([2]; gene RAD54B, CELL CYCLE): 26.20%
% Expression induction, SETX ([2]; gene SETX, HELICASE ACTIVITY and ATPase ACTIVITY): 65.33%
% Expression induction, SH3GLB1 ([2]; gene SH3GLB1, APOPTOSIS ACTIVATION): 52.57%
% Expression induction, SMARCA1 ([2]; gene SMARCA1, HELICASE ACTIVITY and ATPase ACTIVITY): 29.62%
% Expression induction, SOCS2 ([2]; gene SOCS2, INFLAMMATION, ANTI-INFLAMMATORY RESPONSE): 56.13%
% Expression induction, TAF1 ([2]; gene TAF1, DNA repair, Protein DNA Complex Assembly): 65.00%
% Expression induction, TAF2 ([2]; gene TAF2, DNA repair, Protein DNA Complex Assembly): 25.12%
% Expression induction, TAF5 ([2]; gene TAF5, DNA repair, Protein DNA Complex Assembly): 8.18%
% Expression induction, TAX1BP1 ([2]; gene TAX1BP1, APOPTOSIS INHIBITION): 19.23%
% Expression induction, TEP1 ([2]; gene TEP1, LONGEVITY, TELOMERE MAINTENANCE AND PROTECTION): 38.49%
% Expression induction, TERF1 ([2]; gene TERF1, LONGEVITY, TELOMERE MAINTENANCE AND PROTECTION): 7.38%
% Expression induction, TERF2IP ([2]; gene TERF2IP, LONGEVITY, TELOMERE MAINTENANCE AND PROTECTION): 21.63%
% Expression induction, TINF2 ([2]; gene TINF2, LONGEVITY, TELOMERE MAINTENANCE AND PROTECTION): 13.37%
% Expression induction, TP53BP2 ([2]; gene TP53BP2, APOPTOSIS ACTIVATION): 22.34%
% Expression induction, WRN ([2]; gene WRN, HELICASE ACTIVITY and ATPase ACTIVITY): 35.25%
% Expression induction, XIAP ([2]; gene XIAP, APOPTOSIS INHIBITION): 51.98%
% Expression induction, XRCC2 ([2]; gene XRCC2, CELL CYCLE): 24.95%
Effectiveness Photoprotection (%) ([3]; 0.01 mg/mL): 16.24%
Cell viability ([3]; 0.01 mg/mL): 58.96%
Effectiveness Photoprotection (%) ([3]; 0.1 mg/mL): 20.06%
Cell viability ([3]; 0.1 mg/mL): 60.90%
Effectiveness Photoprotection (%) ([3]; 0.5 mg/mL): 35.10%
Cell viability ([3]; 0.5 mg/mL): 68.52%
